A word on the MIC: it is the lowest concentration found to suppress growth.

Our source for the MIC values is patent US6624182B1, “Hydroxyphenylvinylthiazoles” (Ciba Specialty Chemicals Corporation, priority 1999, dated 2003).

In one experiment the test system is S. aureus. As to the kind of experiment: Determination of the minimum inhibitory concentration (MIC value) in microtitre plates. The note with it: Staphylococcus aureus; optical density at 620 nm, 48 hours at 37° C., MIC = ≦20% growth; tested at 100; 10 and 1 ppm (approximate values); (2), (3), (4) at 120; 60; 30; 15; 7.5; 3.75 ppm. It counts as cell-based. The method in brief: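 DMSO-dissolved compounds were tested in 1:2 serial dilutions against bacteria in CASO bouillon, from inocula of 1−5×10^6 KBE/ml diluted 1:100. Growth was read by OD 620 nm after 48 h at 37 °C. MIC was the lowest concentration giving ≦20% growth versus the growth control, tested in duplicate.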

A further experiment deals with A. niger. The description is as above. The note with it: Aspergillus niger, 120 h; optical density at 620 nm, 5 days at 28° C., MIC = ≦20% growth; tested at 100; 10 and 1 ppm (approximate values); (2), (3), (4) at 120; 60; 30; 15; 7.5; 3.75 ppm. It counts as cell-based, Aspergillus niger ATCC 6275. The method in brief: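 A. niger ATCC 6275 spores, adjusted to 1−5×10^6 KBE/ml and diluted 1:100 in Sabouraud 2% glucose bouillon, were exposed to 2-fold dilutions of DMSO-dissolved compounds for 5 days at 28°C. Growth read as OD at 620 nm. MIC is the lowest concentration giving ≤20% growth versus growth control, tested in duplicate.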

Take `Oc1ccc(/C=C/c2nc(-c3ccc(F)cc3)cs2)cc1` [Compound of formula (2)]: the MIC against S. aureus and against A. niger was greater than 100 mg/L in each case.
For `CC(C)(C)c1csc(/C=C/c2ccccc2O)n1` [Compound of formula (3)], the MIC was 60 mg/L in the experiment on S. aureus and greater than 100 mg/L against A. niger.
Taken in the same sequence, the figures for `Oc1ccc(/C=C/c2nc(-c3ccccc3)cs2)cc1` [Compound of formula (4)] were greater than 100 mg/L and greater than 100 mg/L.
